According to patent publication US20090326072A1, “USE OF 2-(2-NITRO-4-TRIFLUOROMETHYLBENZOYL)-l,3- CYCLOHEXANEDIONE IN THE TREATMENT OF PARKINSON'S DISEASE” (priority 2005, published 2009):
Entries after “also recorded” stand apart in the source; their conditions may differ. Like-named read-outs stand apart in the source and are kept apart here.

Assays:
[1] = tested on: AMPT rat model of Parkinson's disease; test: AMPT rat model of Parkinson's disease (catalepsy descent latency and centre rearing counts); type: in vivo
Procedure: AMPT is a competitive inhibitor of tyrosine hydroxylase. Rats dosed with >150 mg/kg AMPT develop parkinsonian-like behavior and locomotor deficits (e.g. catalepsy and reduced rearing activity) within hours owing to the depletion of striatal dopamine concentration as a consequence of the reduced flux through the dopamine synthetic pathway. […] Indian J. Exp. Biol. 41, 1264-1268).
The effect was compared with appropriate vehicle control groups (oral vehicle was 1% carboxymethylcellulose; CMC) and a group that received a 150 mg/kg i.p. dose of L-dopa.
Eight hours after AMPT (or vehicle) administration rats were assessed for catalepsy and centre rearing activity. During the catalepsy test, the front paws of the rat were placed over a horizontal bar suspended 9 cm off the floor. The time taken for the rat to get off the bar (descent latency) was measured with a maximum time of 3 minutes being allowed. Centre rearing counts were determined over a 1 hour monitoring period using an automated activity monitoring system (AM1053). This system used an array of infrared beams to determine the activity and mobility of each animal. Each cage had 48 infrared beams, 24 on each of two levels arranged in an 8×16, 1″ (25.4 mm) pitch grid. The lower grid measured horizontal x, y movement, whilst the upper grid measured rearing movement. The activity detector operated by counting the number of times the beams changed from unbroken to broken and then incrementing the relevant counters.
These groups were compared to a positive control group (6) dosed with 225 mg/kg AMPT i.p.+150 mg/kg L-dopa i.p. 6.5 hour post AMPT dose. L-dopa was administered with a peripheral dopa decarboxylase inhibitor (benserazide), at 100 mg/kg i.p.
In a second and third series of experiments, the efficacy of eight other HPPD inhibitor test compounds were assessed in the AMPT rat model of Parkinson's disease (Tables 1.5 & 1.6). Male Sprague-Dawley rats (300-350 g) were administered a single i.p. dose of 225 mg/kg AMPT and a single oral dose of 10 mg/kg of the HPPD inhibitor test compound was administered either 1 or 16 hours prior to (−16 or −1 hours) AMPT administration. Behavioral assessment (catalepsy and centre rearing counts) was conducted 8 hours post AMPT administration. The effect was compared with a vehicle control group and a group receiving AMPT alone.

plasma tyrosine = test: Plasma tyrosine concentration kinetic profile in the rat following a single oral dose; type: in vivo; settings: for Plasma Tyrosine Concentration: single oral dose 10 mg/kg; for Plasma tyrosine: single oral dose 2.0 mg/kg
Procedure: The plasma tyrosine concentration kinetic profile in the rat was determined for each of the HPPD inhibitor test compounds by administering a single oral dose to 10-12 week old male Sprague Dawley rats. Compounds 3.20, 3.13 and 3.26 were dosed at 2 mg/kg in 1% carboxymethylcellulose (1% CMC) vehicle, whilst compounds 3.22, 3.12, 3.15, 3.18, 3.23, 3.21, 3.11, 3.01, 3.24 and 3.25 were administered at 10 mg/kg in 1% CMC.
Blood samples to determine plasma tyrosine concentration were obtained at frequent intervals during the first 24 hours post-dose, and at 48 hours post-dose. These samples were either compared with blood samples obtained from control rats which only received an equivalent volume of the vehicle, 1% CMC, or by comparison with control samples obtained from the rats 1 hour prior to dosing with test the compound. Prior to the analysis of the samples for plasma tyrosine concentration, the blood samples were centrifuged at 1800 g for 10 minutes at 4° C. The plasma was collected and then filtered through a centrifugal micro partition device at 1500 g for 30 minutes at 4° C. The filtered plasma was then divided into two aliquots and stored frozen at −70° C. for subsequent gradient reverse phase high performance liquid chromatographic (HPLC) analysis of plasma tyrosine. Aliquots of plasma were analysed by HPLC using a 250×4.6 mm Hichrom S5ODS2 column at 30° C., eluted with a mobile phase of water/acetonitrile/trifluoroacetic acid (950:50:2 v/v/v) at a flow rate of 1 ml/min. Detection was by a diode array detector at 274 nm. Appropriate tyrosine standards were run alongside the samples for calibration purposes.
The plasma tyrosine concentration kinetic profile for the test compounds 3.20, 3.13 and 3.26 are shown at the time points 1, 2, 4, 6, 12, 24 and 48 hours post-dose in Table 1.1. The data shown are the mean±standard deviation (n=4), except for the 6 hour time point where the data were obtained from n=3 rats for the control and 3.26 groups.
The plasma tyrosine concentration kinetic profile for the test compounds 3.22, 3.12, 3.15, 3.18, 3.23, 3.21, 3.11, 3.01, 3.24 and 3.25 are shown at the time points −1 hour (pre-dose control), 1, 3, 6, 12, 24 and 48 hours post-dose, in Tables 1.2 and 1.3. The data shown are the mean±standard deviation (n=3), except for the −1 hour time point with compound 3.23, where n=2 (Table 1.2), and for the 3 and 6 hour time points with compound 3.21, where n=2 (Table 1.3).

[2] = molecular target: T1, 4-hydroxyphenyl pyruvate dioxygenase (HPPD) (Rattus norvegicus, UniProt P32755); test: Determination of 4-hydroxyphenyl pyruvate dioxygenase (HPPD) enzyme activity in vitro (rate of oxygen consumption, rat liver cytosol); type: biochemical; settings: for inhibition at 0.1 µM: read-out: % Inhibition at 100 nM; for inhibition at 0.3 µM: read-out: % inhibition at 300 nM
T1 construct: rat liver cytosol (2.7 mg of protein/ml incubate); from tissue; host or cells: rat liver (cytosol, 110,000 g supernatant)
Procedure: The principle of the assay is that 4-hydroxyphenyl pyruvate dioxygenase (HPPD), an enzyme that participates in the catabolism of tyrosine, catalyses the oxidative decarboxylation and rearrangement of 4-hydroxyphenylpyruvate (HPPA) to homogentisate, with the incorporation of both atoms of molecular oxygen into the product.
Rat liver was homogenised in buffer of the following composition; 0.25 M Sucrose, 5.4 mM EDTA, 20 mM Tris base, pH 7.4, (25% homogenate) using 6 passes of a Potter type homogeniser. The homogenate was then centrifuged at 1,800 g for 10 minutes at 4° C., the pellet was discarded and the supernatant centrifuged at 17,000 g for a further 15 minutes at 4° C. The pellet was then discarded and the supernatant centrifuged at 110,000 g for 80 minutes at 4° C. The supernatant containing the HPPD enzyme from this 110,000 g spin was collected and stored frozen at −70° C. and used in the assays of the test compounds (see below).
Prior to the start of the enzymatic reaction by the addition of HPPA substrate, the enzyme and test compound (inhibitor) were incubated together for 3 minutes.
In cases where the effects of several concentrations of an inhibitor were investigated, an IC50 value (the half-maximal inhibitory concentration of test compound) was determined by plotting the data using a non-linear regression curve-fitting program using a GraphPad Prism™ software package.
Data are expressed as mean values from two experiments except where indicated. Where appropriate the values are expressed as the mean±standard deviation.

[3] = 225 mg/kg AMPT i.p. + 2 mg/kg oral 4 hours post AMPT (+4 hours), 8 h post AMPT
[4] = 225 mg/kg AMPT i.p. + 2 mg/kg oral 16 hours prior to AMPT (-16 hours), 8 h post AMPT
[5] = single oral dose 10 mg/kg, -16 or -1 hours
[6] = single oral dose 10 mg/kg, -16 or -1 hours, 10 mg/kg
[7] = Table 1.5: 225 mg/kg AMPT i.p. + 10 mg/kg oral at -16 hours, 8 h post AMPT
[8] = 100 nM test compound, rat liver cytosol, 3 min pre-incubation
[9] = 300 nM test compound, rat liver cytosol, 3 min pre-incubation
[10] = 225 mg/kg AMPT i.p. + 150 mg/kg i.p. at +6.5 hours, with benserazide 100 mg/kg i.p., 8 h post AMPT

T1 sequence (P32755 whole entry): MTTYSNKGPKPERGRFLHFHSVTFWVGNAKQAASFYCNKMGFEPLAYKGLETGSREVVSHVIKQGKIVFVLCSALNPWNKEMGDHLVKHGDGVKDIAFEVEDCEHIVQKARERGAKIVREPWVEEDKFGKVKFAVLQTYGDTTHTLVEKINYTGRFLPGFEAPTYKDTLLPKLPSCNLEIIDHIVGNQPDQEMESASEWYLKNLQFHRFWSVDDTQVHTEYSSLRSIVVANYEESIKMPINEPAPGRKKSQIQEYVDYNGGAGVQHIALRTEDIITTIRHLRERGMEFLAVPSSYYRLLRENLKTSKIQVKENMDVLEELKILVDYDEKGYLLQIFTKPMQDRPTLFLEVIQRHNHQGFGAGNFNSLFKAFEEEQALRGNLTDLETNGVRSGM

Row | Structure (SMILES) | Plasma Tyrosine Concentration (plasma tyrosine; 1 hour post-dose) [nmol/mL] | Plasma Tyrosine Concentration (plasma tyrosine; 3 hours post-dose) [nmol/mL] | Plasma Tyrosine Concentration (plasma tyrosine; 6 hours post-dose) [nmol/mL] | Plasma Tyrosine Concentration (plasma tyrosine; 12 hours post-dose) [nmol/mL] | Plasma Tyrosine Concentration (plasma tyrosine; 24 hours post-dose) [nmol/mL] | Plasma Tyrosine Concentration (plasma tyrosine; 48 hours post-dose) [nmol/mL] | inhibition at 0.1 µM [2] [%] | inhibition at 0.3 µM [2] [%] | inhibition at 0.1 µM [2, 8] [%] | other results
1 | O=C1CCCC(O)=C1C(=O)c1ccc(C(F)(F)F)cc1[N+](=O)[O-] [Compound 2, 2-(2-Nitro-4-Trifluoromethylbenzoyl)-1,3-Cyclohexanedione] |  |  |  |  |  |  |  |  |  | Mean Catalepsy Descent Latency (s) [1, 3]: 27 ± 6.7^++ s; Mean Centre Rearing Counts [1, 3]: 298 ± 57^++ counts; Mean Catalepsy Descent Latency (s) [1, 4]: 27 ± 5.4^++ s; Mean Centre Rearing Counts [1, 4]: 364 ± 74^++ counts; Mean Catalepsy Descent Latency ([1]; AMPT vehicle (saline i.p., no AMPT) + 2 mg/kg oral at +4 hours, assessed 8 h): 12 ± 4.3 s; Mean Centre Rearing Counts ([1]; AMPT vehicle (saline i.p., no AMPT) + 2 mg/kg oral at +4 hours, assessed 8 h, 1 hour monitoring): 485 ± 108 counts; reversal of AMPT induced deficits in centre rearing counts (in words) ([1]; single oral dose 2 mg/kg, 2 mg/kg): reversed; also recorded: effective in reversing; reversal of AMPT induced catalepsy (in words) ([1]; single oral dose 2 mg/kg, both dosing regimens, 2 mg/kg): substantially reversed; also recorded: effective in reversing
2 | CS(=O)(=O)c1cc(C(F)(F)F)ccc1C(=O)c1cnoc1C1CC1 [Compound 3.01] | 160 ± 7.4 | 276 ± 12.9 | 445 ± 32.9 | 666 ± 16.1 | 264 ± 23.5 | 110 ± 23.9 | 8 | 36 |  | Mean Centre Rearing Counts ([1]; Table 1.6: 225 mg/kg AMPT i.p. + 10 mg/kg oral at -1 hour, 8 h post AMPT): 88 ± 26 counts; reversal of AMPT induced deficits in mean centre rearing counts (in words) [1, 5]: either partially or completely reversing; reversal of AMPT induced catalepsy (in words) [1, 6]: substantially reversed; also recorded: effective in reversing
3 | Cc1cc(C(=O)C2=C([O-])CCCC2=O)c(C)c2c1S(=O)(=O)CCC21OCCO1.[K+] [Compound 3.11] | 193 ± 22.9 | 338 ± 48.9 | 551 ± 80.7 | 1041 ± 106.0 | 2125 ± 65.8 | 993 ± 260.6 | 9 | 45 |  | Mean Catalepsy Descent Latency (s) [1, 7]: 9 ± 2.7^+++ s; Mean Centre Rearing Counts [1, 7]: 303 ± 53 counts; reversal of AMPT induced deficits in mean centre rearing counts (in words) [1, 5]: either partially or completely reversing; reversal of AMPT induced catalepsy (in words) [1, 6]: substantially reversed; also recorded: effective in reversing
4 | COCCOCc1nc(C(F)(F)F)ccc1C(=O)C1=C(O)C2CCC(C2)C1=O (stereo not drawn) [Compound 3.13] |  |  |  |  |  |  | 14 | 41 |  | Plasma tyrosine (plasma tyrosine; 1 hour post-dose): 158 ± 6.4 nmol/mL; Plasma tyrosine (plasma tyrosine; 2 hours post-dose): 209 ± 14.8 nmol/mL; Plasma tyrosine (plasma tyrosine; 4 hours post-dose): 324 ± 50.2 nmol/mL; Plasma tyrosine (plasma tyrosine; 6 hours post-dose): 461 ± 52.2 nmol/mL; Plasma tyrosine (plasma tyrosine; 12 hours post-dose): 801 ± 24.8 nmol/mL; Plasma tyrosine (plasma tyrosine; 24 hours post-dose): 1281 ± 90.0 nmol/mL; Plasma tyrosine (plasma tyrosine; 48 hours post-dose): 115 ± 3.0 nmol/mL; IC50 ([2]; rat liver cytosol HPPD): 350 nM
5 | CC1=NN(C)C(=O)C1C(=O)c1ccc(C(F)(F)F)cc1S(C)(=O)=O (stereo not drawn) [Compound 3.21] | 177 ± 17.8 | 300 | 472 | 555 ± 39.0 | 181 ± 23.6 | 100 ± 6.4 | 10 | 43 |  | 
6 | CCOc1c(S(C)(=O)=O)ccc(C(=O)C2C(=O)CC(C)CC2=O)c1Cl (stereo not drawn) [Compound 3.22] | 179 ± 18.5 | 319 ± 43.5 | 507 ± 86.4 | 1011 ± 134.8 | 2067 ± 36.6 | 2377 ± 518.5 |  |  | 44 | 
7 | CS(=O)(=O)c1cc(Cl)ccc1C(=O)c1cnoc1C1CC1 [Compound 3.25] | 162 ± 17.7 | 267 ± 19.4 | 370 ± 60.8 | 415 ± 152.8 | 136 ± 31.2 | 100 ± 13.5 |  |  | 5 | inhibition at 0.3 µM [2, 9]: 22%
8 | Cc1nc(C(F)F)ccc1C(=O)C1C(=O)C2CCC(C2)C1=O (stereo not drawn) [Compound 3.26] |  |  |  |  |  |  |  |  | 20 ± 6.1 | Plasma tyrosine (plasma tyrosine; 1 hour post-dose): 173 ± 9.6 nmol/mL; Plasma tyrosine (plasma tyrosine; 2 hours post-dose): 241 ± 24.0 nmol/mL; Plasma tyrosine (plasma tyrosine; 4 hours post-dose): 337 ± 53.5 nmol/mL; Plasma tyrosine (plasma tyrosine; 6 hours post-dose): 504 ± 72.7 nmol/mL; Plasma tyrosine (plasma tyrosine; 12 hours post-dose): 897 ± 140.8 nmol/mL; Plasma tyrosine (plasma tyrosine; 24 hours post-dose): 1987 ± 50.0 nmol/mL; Plasma tyrosine (plasma tyrosine; 48 hours post-dose): 2449 ± 156.8 nmol/mL; inhibition at 0.3 µM [2, 9]: 43%
9 | N[C@@H](Cc1ccc(O)c(O)c1)C(=O)O [L-dopa, L-3,4-dihydroxyphenylalanine, reference compound] |  |  |  |  |  |  |  |  |  | Mean Catalepsy Descent Latency (s) [1, 10]: 25 ± 6.9^++ s; Mean Centre Rearing Counts [1, 10]: 258 ± 71^+ counts
